Test results published in the NIST ThermoML archive (doi:10.1016/j.jct.2010.05.009).

What was measured:
[1] = xn = mol fraction of the nth substance listed; details: 101 kPa, Liquid; for viscosity: Capillary tube (Ostwald / Ubbelohde) method; for mass density: Vibrating tube method
[2] = refractive index (Na D-line) (dimensionless); xn = mol fraction of the nth substance listed; details: 101 kPa, Liquid, Standard Abbe refractometry

CCCN [propan-1-amine] + C1CCOC1
Details	mass density, [1] [kg/m3]	refractive index, [2]	viscosity, [1] [mPa·s]
288.15 K, x2 = 0	721.57	1.3899	0.3851
288.15 K, x2 = 0.0542	730.55	1.3908	0.3898
288.15 K, x2 = 0.1599	748.15	1.3927	0.3991
288.15 K, x2 = 0.1934	753.76	1.3933	0.4021
288.15 K, x2 = 0.3199	775.03	1.3956	0.4138
288.15 K, x2 = 0.4	788.58	1.397	0.4211
288.15 K, x2 = 0.4789	802.01	1.3985	0.4289
288.15 K, x2 = 0.56	815.87	1.4	0.4371
288.15 K, x2 = 0.6402	829.71	1.4015	0.4455
288.15 K, x2 = 0.7201	843.56	1.4031	0.4546
288.15 K, x2 = 0.8791	871.41	1.4062	0.4765
288.15 K, x2 = 0.9585	885.46	1.4078	0.4902
298.15 K, x2 = 0	711.08	1.3844	0.3585
298.15 K, x2 = 0.0542	719.96	1.3854	0.3632
298.15 K, x2 = 0.1599	737.23	1.3873	0.372
298.15 K, x2 = 0.1934	742.73	1.3879	0.3747
298.15 K, x2 = 0.3199	763.65	1.3902	0.3856
298.15 K, x2 = 0.4	777.02	1.3917	0.3926
298.15 K, x2 = 0.4789	790.28	1.3931	0.3996
298.15 K, x2 = 0.56	804.04	1.3947	0.4071
298.15 K, x2 = 0.6402	–	1.3965	–
298.15 K, x2 = 0.651	819.66	–	0.4149
298.15 K, x2 = 0.7201	831.66	1.3978	0.4229
298.15 K, x2 = 0.8791	859.85	1.4011	0.4396
298.15 K, x2 = 0.9585	874.29	1.4028	0.4489
308.15 K, x2 = 0	700.4	1.3784	0.3222
308.15 K, x2 = 0.0542	709.15	1.3793	0.3269
308.15 K, x2 = 0.1599	726.3	1.3812	0.3363
308.15 K, x2 = 0.1934	731.73	1.3818	0.3393
308.15 K, x2 = 0.3199	752.47	1.3842	0.3509
308.15 K, x2 = 0.4	765.73	1.3857	0.3584
308.15 K, x2 = 0.4789	778.88	1.3873	0.3659
308.15 K, x2 = 0.56	792.57	1.3889	0.3736
308.15 K, x2 = 0.6402	–	1.3906	–
308.15 K, x2 = 0.651	806.31	–	0.3813
308.15 K, x2 = 0.7201	820.22	1.3923	0.3891
308.15 K, x2 = 0.8791	848.66	1.3958	0.4049
308.15 K, x2 = 0.9585	863.3	1.3977	0.4129
